Reference: PubChem BioAssay (NCI)
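Values below derive from 48-hour exposures of cells grown in 96-well plates, with endpoints linearly interpolated between the two concentrations bracketing the appropriate inhibition level. Abbreviation: GI50, concentration required for 50% inhibition of growth. TGI: total growth inhibition.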

Tests used:
Assay in all cases: inhibition of tumour cell growth, NCI panel, 48 h
SNB-19 CNS = tested on: SNB-19 CNS
BT-549 breast = tested on: BT-549 breast
KM12 colon = tested on: KM12 colon
MALME-3M melanoma = tested on: MALME-3M melanoma
OVCAR-8 ovarian = tested on: OVCAR-8 ovarian
TK-10 renal = tested on: TK-10 renal
SN12C renal = tested on: SN12C renal
SNB-75 CNS = tested on: SNB-75 CNS
MCF7 breast = tested on: MCF7 breast
CAKI-1 renal = tested on: CAKI-1 renal
CCRF-CEM leukemia = tested on: CCRF-CEM leukemia
SR leukemia = tested on: SR leukemia
HCC-2998 colon = tested on: HCC-2998 colon
UACC-62 melanoma = tested on: UACC-62 melanoma
OVCAR-4 ovarian = tested on: OVCAR-4 ovarian
ACHN renal = tested on: ACHN renal
HS 578T breast = tested on: HS 578T breast
SK-MEL-2 melanoma = tested on: SK-MEL-2 melanoma
NCI-H522 lung = tested on: NCI-H522 lung
SF-268 CNS = tested on: SF-268 CNS
OVCAR-3 ovarian = tested on: OVCAR-3 ovarian
NCI/ADR-RES ovarian = tested on: NCI/ADR-RES ovarian
U251 CNS = tested on: U251 CNS
RPMI-8226 leukemia = tested on: RPMI-8226 leukemia
A498 renal = tested on: A498 renal
SF-539 CNS = tested on: SF-539 CNS
MDA-MB-231 breast = tested on: MDA-MB-231 breast
SK-OV-3 ovarian = tested on: SK-OV-3 ovarian
HOP-92 NSCLC = tested on: HOP-92 NSCLC
A549 NSCLC = tested on: A549 NSCLC
MOLT-4 leukemia = tested on: MOLT-4 leukemia
LOX IMVI melanoma = tested on: LOX IMVI melanoma
786-0 renal = tested on: 786-0 renal
IGROV1 ovarian = tested on: IGROV1 ovarian
UACC-257 melanoma = tested on: UACC-257 melanoma
HT29 colon = tested on: HT29 colon
K-562 leukemia = tested on: K-562 leukemia
PC-3 prostate = tested on: PC-3 prostate
COLO 205 colon = tested on: COLO 205 colon
EKVX NSCLC = tested on: EKVX NSCLC
M14 melanoma = tested on: M14 melanoma
T-47D breast = tested on: T-47D breast
HCT-116 colon = tested on: HCT-116 colon
NCI-H226 lung = tested on: NCI-H226 lung
HL-60(TB) leukemia = tested on: HL-60(TB) leukemia
SW-620 colon = tested on: SW-620 colon
RXF 393 renal = tested on: RXF 393 renal
SK-MEL-28 melanoma = tested on: SK-MEL-28 melanoma
HCT-15 colon = tested on: HCT-15 colon
NCI-H460 lung = tested on: NCI-H460 lung
OVCAR-5 ovarian = tested on: OVCAR-5 ovarian
NCI-H23 lung = tested on: NCI-H23 lung
SK-MEL-5 melanoma = tested on: SK-MEL-5 melanoma
HOP-62 NSCLC = tested on: HOP-62 NSCLC
DU-145 prostate = tested on: DU-145 prostate
UO-31 renal = tested on: UO-31 renal
SF-295 CNS = tested on: SF-295 CNS
MDA-MB-435 = tested on: MDA-MB-435

## COc1ccc(/C=C2\CS(=O)(=O)C/C(=C\c3ccc(OC)cc3)C2=O)cc1
SNB-19 CNS
  GI50: 4210 nM
  TGI: 18100 nM
BT-549 breast
  GI50: 2170 nM
  TGI: 5280 nM
KM12 colon
  GI50: 676 nM
  TGI: 1890 nM
MALME-3M melanoma
  GI50: 2410 nM
  TGI: 7840 nM
OVCAR-8 ovarian
  GI50: 1210 nM
  TGI: 6680 nM
TK-10 renal
  GI50: 2670 nM
  TGI: 6910 nM
SN12C renal
  GI50: 1780 nM
  TGI: 4040 nM
SNB-75 CNS
  GI50: 8180 nM
  TGI: > 47400 nM
MCF7 breast
  GI50: 510 nM
  TGI: 7830 nM
CAKI-1 renal
  GI50: 2160 nM
  TGI: 6100 nM
CCRF-CEM leukemia
  GI50: 1350 nM
SR leukemia
  GI50: 182 nM
  TGI: 423 nM
HCC-2998 colon
  GI50: 1710 nM
  TGI: 3090 nM
UACC-62 melanoma
  GI50: 1440 nM
  TGI: 2780 nM
OVCAR-4 ovarian
  GI50: 3190 nM
  TGI: > 30800 nM
ACHN renal
  GI50: 1790 nM
  TGI: 3350 nM
HS 578T breast
  GI50: 3070 nM
  TGI: > 31300 nM
SK-MEL-2 melanoma
  GI50: 3090 nM
  TGI: > 20900 nM
NCI-H522 lung
  GI50: 1150 nM
  TGI: 3020 nM
SF-268 CNS
  GI50: 1700 nM
  TGI: 5340 nM
OVCAR-3 ovarian
  GI50: 1790 nM
  TGI: 4110 nM
NCI/ADR-RES ovarian
  GI50: 2060 nM
  TGI: 4870 nM
U251 CNS
  GI50: 497 nM
  TGI: 1850 nM
RPMI-8226 leukemia
  GI50: 567 nM
  TGI: 4890 nM
A498 renal
  GI50: 1760 nM
  TGI: 3670 nM
SF-539 CNS
  GI50: 2010 nM
  TGI: 4280 nM
MDA-MB-231 breast
  GI50: 3010 nM
  TGI: 9650 nM
SK-OV-3 ovarian
  GI50: 3300 nM
  TGI: 26200 nM
HOP-92 NSCLC
  GI50: 8740 nM
  TGI: 69000 nM
A549 NSCLC
  GI50: 2000 nM
  TGI: 5290 nM
MOLT-4 leukemia
  GI50: 2220 nM
  TGI: > 22200 nM
LOX IMVI melanoma
  GI50: 646 nM
  TGI: 1910 nM
786-0 renal
  GI50: 1750 nM
  TGI: 3210 nM
IGROV1 ovarian
  GI50: 1750 nM
  TGI: 5710 nM
UACC-257 melanoma
  GI50: 1670 nM
  TGI: 3630 nM
HT29 colon
  GI50: 999 nM
K-562 leukemia
  GI50: 1160 nM
PC-3 prostate
  GI50: 2090 nM
  TGI: 18100 nM
COLO 205 colon
  GI50: 1520 nM
  TGI: 2940 nM
EKVX NSCLC
  GI50: 3070 nM
  TGI: > 36800 nM
M14 melanoma
  GI50: 1610 nM
  TGI: 3090 nM
T-47D breast
  GI50: 2910 nM
  TGI: 28400 nM
HCT-116 colon
  GI50: 472 nM
  TGI: 1430 nM
NCI-H226 lung
  GI50: 16800 nM
  TGI: > 100000 nM
HL-60(TB) leukemia
  GI50: 1960 nM
  TGI: 5730 nM
SW-620 colon
  GI50: 1320 nM
  TGI: 3370 nM
RXF 393 renal
  GI50: 1480 nM
  TGI: 2900 nM
SK-MEL-28 melanoma
  GI50: 1700 nM
  TGI: 3170 nM
HCT-15 colon
  GI50: 1840 nM
  TGI: 4820 nM
NCI-H460 lung
  GI50: 1900 nM
  TGI: 4490 nM
OVCAR-5 ovarian
  GI50: 3160 nM
  TGI: 10300 nM
NCI-H23 lung
  GI50: 1640 nM
  TGI: 3320 nM
SK-MEL-5 melanoma
  GI50: 1570 nM
  TGI: 2920 nM
HOP-62 NSCLC
  GI50: 2010 nM
  TGI: 4360 nM
DU-145 prostate
  GI50: 2000 nM
  TGI: 5410 nM
UO-31 renal
  GI50: 1450 nM
  TGI: 3020 nM
SF-295 CNS
  GI50: 2420 nM
  TGI: 6590 nM
MDA-MB-435
  GI50: 1400 nM
  TGI: 5290 nM
